According to patent US10030089B2, “Sugar free, statistical copolymers made from at least three monomers” (REGENTS OF THE UNIVERSITY OF MINNESOTA, priority 2013, dated 2018):

Assay: Phenytoin dissolution control
Format: physicochemical
Method: Probucol and phenytoin concentrations were quantified using a Agilent 1260 Infinity Quaternary HPLC equipped. The HPLC consisted of a reversed-phase EC-C18 column (Poroshell 120, 4.6×50 mm, 2.7 μm, Agilent, USA). The mobile phase was acetonitrile:water 96:4 for probucol and acetonitrile:water 40:60 for phenytoin, and the flow rate was 1.0 mL/min. A 10 μL aliquot of sample was injected, and the column effluent was detected at 241 nm for probucol (eluted at 2.90 min) and 225 nm for phenytoin (eluted at 1.40 min) with a UV detector (1260 Infinity Multiple Wavelength Detector, Agilent). The standard curve linearity was verified from 0.1 to 1000 μg/mL with an r^2 value of at least 0.999.

## O=C1NC(=O)C(c2ccccc2)(c2ccccc2)N1 [Phenytoin, phenytoin]
Time (s) 0
  Concentration: 0 ng/mL
Time (s) 4
  Concentration: 38000 ng/mL
Time (s) 10
  Concentration: 46000 ng/mL
Time (s) 20
  Concentration: 45000 ng/mL
Time (s) 40
  Concentration: 48000 ng/mL
Time (s) 90
  Concentration: 51000 ng/mL
Time (s) 180
  Concentration: 45000 ng/mL
Time (s) 360
  Concentration: 48000 ng/mL
